Drawing on ChEMBL document CHEMBL3879902, “Compounds and methods for kinase modulation, and indications thereof” (2012), this text covers solubility for 14 compounds.

Data set [1] in a line: Aqueous solubility of the compound in simulated intestinal fluid at pH 4.5. It is filed as ADME. Particulars: simulated gi fluid.
Data set [2] is described as follows: Aqueous solubility of the compound in simulated gastric fluid at pH 1.5. In kind it is ADME. Particulars: simulated gi fluid.
Data set [3] can be described thus: Aqueous solubility of the compound in simulated intestinal fluid at pH 6.8. It is filed as ADME. To be noted: simulated gi fluid.
Data set [4] is described as follows: Aqueous solubility of the compound in hepes buffer at pH 7.4. In kind it is physicochemical.

Regarding `O=C(c1c(F)ccc(NS(=O)(=O)c2cc(F)ccc2F)c1F)c1c[nH]c2nccc(Cl)c12`, the solubility entry in data set [1] is on record as “Soluble”; in data set [2], “Insoluble”; in data set [3], “Soluble”; in data set [4] it was “Soluble”.

Take `O=C(c1c(F)ccc(NS(=O)(=O)c2ccccc2F)c1F)c1c[nH]c2nccc(Cl)c12`: the solubility result in data set [1], in data set [2], in data set [3] and in data set [4] was “Soluble” each time.

On to `COc1cnc2[nH]cc(C(=O)c3c(F)ccc(NS(=O)(=O)c4ccccc4F)c3F)c2c1`, for which the solubility entry in data set [1] was “Insoluble”; in data set [2], “Insoluble”; in data set [3] it was “Insoluble”; in data set [4] it was “Soluble”.

Consider `O=C(c1c(F)ccc(NS(=O)(=O)c2cc(F)ccc2F)c1F)c1c[nH]c2ncc(Cl)cc12`, for which the solubility entry is given as “Insoluble” in data set [1], “Insoluble” in data set [2], “Soluble” in data set [3] and “Soluble” in data set [4].

As to `N#Cc1ccnc2[nH]cc(C(=O)c3c(F)ccc(NS(=O)(=O)c4ccccc4F)c3F)c12`, the solubility result in data set [1], in data set [2], in data set [3] and in data set [4] was “Soluble” throughout.

As to `Cc1cnc2[nH]cc(C(=O)c3c(F)ccc(NS(=O)(=O)c4ccccc4F)c3F)c2c1`, the solubility result is recorded as “Soluble” in data set [1], “Insoluble” in data set [2], “Soluble” in data set [3] and “Soluble” in data set [4].

For `N#Cc1cnc2[nH]cc(C(=O)c3c(F)ccc(NS(=O)(=O)c4ccccc4F)c3F)c2c1`, the solubility entry in data set [1], in data set [2], in data set [3] and in data set [4] was “Soluble” in each case.

On to `Cc1cnc2[nH]cc(C(=O)c3c(F)ccc(NS(=O)(=O)c4cccc(F)c4)c3F)c2c1`, for which the solubility entry is “Insoluble” in data set [1], “Soluble” in data set [2], “Soluble” in data set [3] and “Soluble” in data set [4].

For `COc1ccnc2[nH]cc(C(=O)c3c(F)ccc(NS(=O)(=O)c4cc(F)ccc4F)c3F)c12`, the solubility entry in data set [1], in data set [2], in data set [3] and in data set [4] was “Soluble” throughout.

Take `COc1ccnc2[nH]cc(C(=O)c3c(F)ccc(NS(=O)(=O)c4ccccc4F)c3F)c12`: the solubility entry in data set [1], in data set [2], in data set [3] and in data set [4] was “Soluble” each time.

With `COc1cnc2[nH]cc(C(=O)c3c(F)ccc(NS(=O)(=O)c4cc(F)ccc4F)c3F)c2c1`, the solubility entry is given as “Insoluble” in data set [1], “Insoluble” in data set [2], “Soluble” in data set [3] and “Soluble” in data set [4].

With `O=C(c1c(F)ccc(NS(=O)(=O)c2c(F)cccc2F)c1F)c1c[nH]c2ncc(Cl)cc12`, the solubility entry in data set [1], in data set [2], in data set [3] and in data set [4] was “Soluble” in each case.

With `O=C(c1c(F)ccc(NS(=O)(=O)c2cccc(F)c2)c1F)c1c[nH]c2nccc(Cl)c12`, the solubility result in data set [1] is given as “Soluble”; in data set [2] it was “Insoluble”; in data set [3] it was “Soluble”; in data set [4], “Soluble”.

As to `Cc1cnc2[nH]cc(C(=O)c3c(F)ccc(NS(=O)(=O)c4cc(F)ccc4F)c3F)c2c1`, the solubility entry in data set [1] is listed as “Insoluble”; in data set [2], “Soluble”; in data set [3], “Soluble”; in data set [4] it was “Soluble”.
